The source of these data is US4558144A, “Volatile metal complexes” (Corning Glass Works, priority 1984, dated 1985).

A short description of data set [1]: Thermogravimetric analysis (TGA), volatility. Type of data set: physicochemical. The note with it: for T1/2 volatility: Table III, comparative data; for volatilization behavior / decomposition in TGA / T1/2 (temperature at which one-half of the sample has been evaporated): 20 mg sample, 10° C./min, argon; for T1/2 (temperature at which one-half of the sample has been evaporated): TGA. As for the experimental part: A thermogravimetric analysis (TGA) of the product was carried out on a 20 mg sample of the material, heated at a rate of 10° C./min under an argon atmosphere. A thermogravimetric curve resulting from such a study, identified as "TGA-Mg(hfa)2.1,2-DME", is reproduced in FIG. 1 of the drawing.

A short description of data set [2]: Thermal stability, heating in evacuated/sealed ampoules at 200° C. for 24 hours. Type of data set: physicochemical. The note with it: ampoule, compared with corresponding THF adduct. The procedure:
The thermal stability of Mg(hfa)2.1,2-DME is evidenced not only by the TGA data set forth in FIG. 1, but also by investigations as to the extent and nature of the decomposition of Mg(hfa)2.1,2-DME after prolonged heating at temperatures in the 100°-200° C. range.
As in the case of the magnesium complex, the thermal stability of Zn(hfa)2.1,2-DME is evidenced not only by the observed rapid and complete TGA volatilization behavior shown in FIG. 2, but also by measuring residual gas pressure after heating a sample of the material in a sealed ampoule at 200° C. for 24 hours.

The nature of a further data set: Vapor pressure. The format is physicochemical.
For data set [3] the following is noted: at 200° C.; EP No. 0103446; cited from earlier work.

For the compound `O=C(C=C([O-])C(F)(F)F)C(F)(F)F.O=C(C=C([O-])C(F)(F)F)C(F)(F)F.[Zn+2].c1cnc2c(c1)ccc1cccnc12` [Zn(hfa)2.1,10-phenanthroline, reference compound], the T1/2 volatility in data set [1] worked out at 310 °C.
Still for that read-out and setting: then `O=C(C=C([O-])C(F)(F)F)C(F)(F)F.O=C(C=C([O-])C(F)(F)F)C(F)(F)F.[Zn+2].c1ccc(-c2ccccn2)nc1` [Zn(hfa)2.2,2'-bipyridine, reference compound], with 295 °C.
`COCCOC.O=C(C=C([O-])C(F)(F)F)C(F)(F)F.O=C(C=C([O-])C(F)(F)F)C(F)(F)F.[Mg+2]` [Mg(hfa)2.1,2-DME]: in data set [2], the “residual pressure after heating” value is recorded as “lower residual pressure” and the “sample discoloration after heating” value is given as “less discoloration”. Further, the vapor pressure in “Vapor pressure” (at about 120° C.) is 10 mm (Hg). Besides, the “volatilization behavior / decomposition in TGA” value in data set [1] (in words) was “rapid and complete volatilization of the complex over a narrow temperature range, indicating the absence of detectable decomposition”. For the same compound, in data set [1], the “T1/2 (temperature at which one-half of the sample has been evaporated)” value was “about 170 °C” and the T1/2 volatility is 170 °C.
In data set [1], `O=C(C=C([O-])C(F)(F)F)C(F)(F)F.O=C(C=C([O-])C(F)(F)F)C(F)(F)F.[Mg+2].c1cnc2c(c1)ccc1cccnc12` [Mg(hfa)2.1,10-phenanthroline, reference compound] displayed a T1/2 volatility of 295 °C.
On to `C1CCOC1.C1CCOC1.O=C(C=C([O-])C(F)(F)F)C(F)(F)F.O=C(C=C([O-])C(F)(F)F)C(F)(F)F.[Mg+2]` [Mg(hfa)2.2THF, reference compound], for which the volatilization without decomposition entry in data set [3] is listed as “can be volatilized without decomposition”. In data set [1], the “T1/2 (temperature at which one-half of the sample has been evaporated)” value amounted to 180 °C.
With `COCCOC.O=C(C=C([O-])C(F)(F)F)C(F)(F)F.O=C(C=C([O-])C(F)(F)F)C(F)(F)F.[Zn+2]` [Zn(hfa)2.1,2-DME], in data set [2], the “residual pressure after heating” value was “lower residual pressure” and the “sample discoloration after heating” value was “less discoloration”. Moreover, the vapor pressure entry in “Vapor pressure” (at 125° C.) is “about 16 mm (Hg)”. Also, the “volatilization behavior / decomposition in TGA” value in data set [1] (in words) is “rapid and complete vaporization over a narrow range of temperatures, indicating no detectable thermal decomposition”. Besides, in data set [1], the “T1/2 (temperature at which one-half of the sample has been evaporated)” value is 162 °C and the T1/2 volatility stood at 162 °C. Besides, the “T1/2 temperature compared with Zn(hfa)2.2THF” value in data set [1] (same TGA conditions, in words) was “only slightly higher than the T1/2 temperature of Zn(hfa)2.2THF”.
